The source made the active and inactive calls.
How the values were obtained:
Genome polyprotein = Genome polyprotein (dengue virus type 2, UniProt P29990); assay: flavivirus cap methylation enzyme inhibition – biochemical, confirmation dose response, primary screen (AID 588689); assay type: functional
Fatty acid synthase [1] = target: T1, Fatty acid synthase (Homo sapiens, UniProt P49327); assay: inhibition of human FAS-TE enzyme activity – biochemical, kinetic fluorescence intensity, dose response (AID 624326); assay type: functional;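 further: rate of fluorescence rise from hydrolysis of a fluorogenic O-methyl fluorescein ester substrate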
Prothrombin = Prothrombin (Homo sapiens, UniProt P00734); assay: Thrombin 1536 HTS Dose Response Confirmation. [Related pubchem assays: 1046 (Thrombin 1536 HTS; hits were confirmed in this assay)]; assay type: functional
Coagulation factor XII = target: T2, Coagulation factor XII (Homo sapiens, UniProt P00748); assay type: functional;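 further: activated factor XIIa alpha cleaving a fluorogenic AMC peptide substrate; inhibitor potency from loss of enzyme activity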
T2 sequence (P00748 whole entry): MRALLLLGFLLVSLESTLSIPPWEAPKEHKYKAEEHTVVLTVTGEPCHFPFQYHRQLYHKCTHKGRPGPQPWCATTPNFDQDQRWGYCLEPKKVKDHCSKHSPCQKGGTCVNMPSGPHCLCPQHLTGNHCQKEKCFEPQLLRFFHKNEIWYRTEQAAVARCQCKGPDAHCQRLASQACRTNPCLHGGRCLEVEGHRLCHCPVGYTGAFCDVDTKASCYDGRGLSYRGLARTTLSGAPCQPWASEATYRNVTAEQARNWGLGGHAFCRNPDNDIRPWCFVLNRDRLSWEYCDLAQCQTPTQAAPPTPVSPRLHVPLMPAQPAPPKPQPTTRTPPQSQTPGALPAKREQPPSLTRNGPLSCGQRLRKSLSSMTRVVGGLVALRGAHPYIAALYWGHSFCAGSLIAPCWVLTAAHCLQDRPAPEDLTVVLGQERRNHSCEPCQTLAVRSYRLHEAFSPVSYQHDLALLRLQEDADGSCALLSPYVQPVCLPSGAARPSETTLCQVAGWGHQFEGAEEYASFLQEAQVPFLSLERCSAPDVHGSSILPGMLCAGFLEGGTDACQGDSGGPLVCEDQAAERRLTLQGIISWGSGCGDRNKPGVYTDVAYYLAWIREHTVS

Fatty acid synthase [2] = target: T1, Fatty acid synthase; assay: inhibition of human FAS-TE enzyme activity – biochemical, endpoint fluorescence intensity, uHTS hits, dose response (AID 624327); assay type: functional;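 further: fluorescence from hydrolysis of an O-methyl fluorescein acyl ester substrate by the enzyme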
[3] = viability loss in Vero cells – cytotoxicity control for Vif-APOBEC3G degradation inhibitor project, dose response (AID 1117358); assay type: functional; details: Vero
Fibrinogen beta chain [4] = target: T3, Fibrinogen beta chain (Homo sapiens, UniProt P02675); assay: Fluorescence polarization-based biochemical high throughput dose response assay to identify inhibitors that disrupt the binding of a cyclic peptide (Tn7) to the fibrin proteolytic product D-Dimer and fragment E complex [DD(E )].
T3 sequence (P02675 whole entry): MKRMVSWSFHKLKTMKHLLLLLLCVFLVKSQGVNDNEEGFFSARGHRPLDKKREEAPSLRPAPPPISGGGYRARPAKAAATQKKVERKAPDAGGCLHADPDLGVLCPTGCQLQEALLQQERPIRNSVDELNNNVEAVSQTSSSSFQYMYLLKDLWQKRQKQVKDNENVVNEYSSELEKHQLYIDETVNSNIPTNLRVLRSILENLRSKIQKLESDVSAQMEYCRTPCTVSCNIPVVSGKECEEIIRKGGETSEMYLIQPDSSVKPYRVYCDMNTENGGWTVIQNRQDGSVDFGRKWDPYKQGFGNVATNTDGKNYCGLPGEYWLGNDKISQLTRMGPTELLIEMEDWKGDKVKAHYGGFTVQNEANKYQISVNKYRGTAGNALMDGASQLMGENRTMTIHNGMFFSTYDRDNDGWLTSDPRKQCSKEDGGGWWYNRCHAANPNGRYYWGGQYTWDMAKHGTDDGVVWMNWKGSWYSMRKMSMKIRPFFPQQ

Fibrinogen beta chain [5] = target: T3, Fibrinogen beta chain; assay: Fluorescence polarization-based biochemical high throughput dose response assay to identify inhibitors that disrupt the binding of a cyclic peptide (Tn6) to the fibrin proteolytic product D-Dimer and fragment E complex [DD(E )].
[6] = Luminescence Cell-Based Dose Confirmation HTS to Identify Inhibitors of Polyadenylation.; assay type: functional
cells [7] = assay type: functional
[8] = system: Streptococcus sp. 'group A'; assay: Streptococcus pyogenes SK(-)GAS viability under kanamycin – luminescence, BacTiterGlo, confirmation, counter-screen for streptokinase expression inhibitor project, dose response (AID 1900); assay type: functional, organism-based
[9] = luciferase reporter signal suppression in cells – H4 neuroglioma cells, luminescence, dose response (AID 1990); assay type: functional, cell-based
[10] = target: Photoreceptor-specific nuclear receptor (Homo sapiens, UniProt Q9Y5X4); assay type: functional, cell-based;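 further: CHO-S cells with Gal4-NCOR and VP16-NR2E3 two-hybrid luciferase reporter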
[11] = alpha-synuclein stem-loop translation blockers – luminescence, H4 neuroglioblastoma cells, dose confirmation, confirmation (AID 2454); assay type: functional, cell-based;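 further: H4 neuroglioblastoma cells carrying an alpha-synuclein 5'UTR luciferase reporter; potency for inhibition of the luciferase signal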
[12] = Luminescence-based dose response cell-based high throughput screening assay for cytotoxic compounds using the IEC-6 intestinal epithelial cell line. [Related pubchem assays: 1858 (Summary AID.), 1825 (Counterscreen.), 1907 (Confirmation screen.)]; assay type: functional
[13] = Luminescence Cell-Based Dose Response HTS to Identify Inhibitors of 5'UTR Stem-Loop Driven Prion Protein mRNA Translation in H4 Neuroglioblastoma Cells. [Related pubchem assays: 1827 (Project Summary), 1813 (Primary HTS)]; assay type: functional
[14] = alpha-synuclein stem-loop luciferase translation blockers – H4 neuroglioma cells, luminescence, confirmation (AID 1988); assay type: functional, cell-based
Streptokinase A = target: T4, Streptokinase A (Streptococcus pyogenes serotype M1, UniProt P10520); assay: viability-normalized secreted streptokinase activity reduction – plasminogen activation absorbance, OD405, dose response (AID 1914); assay type: functional, Streptococcus pyogenes M1 GAS;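 further: secreted streptokinase activity via plasminogen activation per viability signal from cell pellet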
T4 sequence (P10520 whole entry): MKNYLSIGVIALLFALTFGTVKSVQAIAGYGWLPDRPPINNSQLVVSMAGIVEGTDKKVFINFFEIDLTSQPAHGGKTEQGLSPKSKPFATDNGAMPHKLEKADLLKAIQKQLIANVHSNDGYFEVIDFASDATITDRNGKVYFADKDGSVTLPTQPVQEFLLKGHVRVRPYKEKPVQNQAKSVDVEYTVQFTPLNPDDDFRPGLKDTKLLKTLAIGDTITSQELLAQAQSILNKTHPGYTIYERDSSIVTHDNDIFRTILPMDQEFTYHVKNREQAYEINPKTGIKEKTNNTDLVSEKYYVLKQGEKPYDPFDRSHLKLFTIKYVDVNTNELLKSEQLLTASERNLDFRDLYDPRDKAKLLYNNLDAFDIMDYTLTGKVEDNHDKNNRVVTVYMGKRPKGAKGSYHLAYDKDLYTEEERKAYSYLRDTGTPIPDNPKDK

cells [15] = assay type: functional, cell-based
Streptococcus = assay: GAS UMAA2166 growth inhibition – luminescence, BacTiterGlo, counter-screen for streptokinase expression inhibitor project, dose response (AID 1915); assay type: functional, organism-based;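 further: potency for reduction of bacterial viability or growth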
[16] = luciferase reporter signal reduction – luminescence, H4-C neuroglioblastoma cells, dose response (AID 2458); assay type: functional, cell-based;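 further: H4 neuroglioblastoma cells stably carrying a luciferase reporter gene fusion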
Paired box protein Pax-8 = Paired box protein Pax-8 (Homo sapiens, UniProt Q06710); assay: PAX8 transcriptional activity inhibition in RMG-I – RMG-I cells, luciferase, cherry-pick, dose response (AID 687027); assay type: functional, cell-based;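 further: luciferase reporter driven by Pax8 target thyroperoxidase promoter measured by SteadyGlo luminescence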
[17] = target: T5, Carboxy-terminal domain RNA polymerase II polypeptide A small phosphatase 1 (Homo sapiens, UniProt Q9GZU7); assay: CTDSP1 inhibitors, concentration-response, biochemical, absorbance readout, ultra-high-throughput screen actives (AID 540297); assay type: functional
T5 sequence (Q9GZU7 whole entry): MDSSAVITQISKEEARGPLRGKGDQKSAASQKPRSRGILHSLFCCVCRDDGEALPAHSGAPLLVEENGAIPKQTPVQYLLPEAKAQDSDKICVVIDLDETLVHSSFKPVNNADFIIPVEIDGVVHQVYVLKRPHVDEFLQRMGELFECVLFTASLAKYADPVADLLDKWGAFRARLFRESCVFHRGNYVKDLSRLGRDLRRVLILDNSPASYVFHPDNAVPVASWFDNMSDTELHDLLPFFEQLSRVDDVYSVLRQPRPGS

[18] = target: E3 ubiquitin-protein ligase UHRF1 (Homo sapiens, UniProt Q96T88); assay: Counterscreen for inhibitors of 5-meCpG-binding domain protein 2 (MBD2): TRFRET-based biochemical high throughput dose response assay to identify inhibitors of binding of ubiquitin-like with PHD and ring finger domains 1 (UHRF1) to methylated oligonucleotide.
P388 = assay: cells; assay type: functional; details: Mus musculus
[19] = rise of 4N DNA cells, HeLa – IC50, dose response (AID 1117351); assay type: functional, cell-based
SN12K1 = assay: cells; assay type: functional; details: Homo sapiens
[20] = rise of 2N DNA cells, HeLa – IC50, dose response (AID 1117349); assay type: functional, cell-based
P388/ADR = assay: cells; assay type: functional; details: Mus musculus
Protein Tat = target: T6, Protein Tat (Human immunodeficiency virus type 1 group M subtype B (isolate HXB2)(HIV-1), UniProt P04608); assay type: functional;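 further: tat binding to TAR RNA read out by fluorescence polarization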
T6 sequence (P04608 whole entry): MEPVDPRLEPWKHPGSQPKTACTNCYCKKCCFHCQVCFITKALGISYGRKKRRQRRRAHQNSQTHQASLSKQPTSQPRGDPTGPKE

[21] = viability of PTEN-deleted HCT116 cells – cell-based, HCT116 PTEN knockout, dose response (AID 1047); assay type: functional;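 further: HCT116 colon tumor cells with PTEN knocked out; cells exposed to compound for 60 hours before readout; potency for loss of cell viability measured by luminescence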
[22] = viability of HCT116 lacking mutant beta-catenin – cell-based, human colon tumor, dose response (AID 1045); assay type: functional;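 further: HCT116 colon tumor cells with beta catenin knocked out; cells exposed to compound for 60 hours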
[23] = target: Induced myeloid leukemia cell differentiation protein Mcl-1 (Homo sapiens, UniProt Q07820); assay type: functional
Chain of Induced myeloid leukemia cell differentiation protein Mcl-1 (Q07820 whole entry): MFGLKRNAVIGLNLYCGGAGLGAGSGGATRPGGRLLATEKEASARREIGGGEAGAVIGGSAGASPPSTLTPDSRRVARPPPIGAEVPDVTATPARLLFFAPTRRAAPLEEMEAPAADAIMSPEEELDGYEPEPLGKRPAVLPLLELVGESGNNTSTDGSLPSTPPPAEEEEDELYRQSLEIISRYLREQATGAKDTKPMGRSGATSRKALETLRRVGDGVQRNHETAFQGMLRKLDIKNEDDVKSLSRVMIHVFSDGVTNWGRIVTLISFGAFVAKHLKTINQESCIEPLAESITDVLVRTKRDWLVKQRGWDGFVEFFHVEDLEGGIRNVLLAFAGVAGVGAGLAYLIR

T1 sequence (P49327 whole entry): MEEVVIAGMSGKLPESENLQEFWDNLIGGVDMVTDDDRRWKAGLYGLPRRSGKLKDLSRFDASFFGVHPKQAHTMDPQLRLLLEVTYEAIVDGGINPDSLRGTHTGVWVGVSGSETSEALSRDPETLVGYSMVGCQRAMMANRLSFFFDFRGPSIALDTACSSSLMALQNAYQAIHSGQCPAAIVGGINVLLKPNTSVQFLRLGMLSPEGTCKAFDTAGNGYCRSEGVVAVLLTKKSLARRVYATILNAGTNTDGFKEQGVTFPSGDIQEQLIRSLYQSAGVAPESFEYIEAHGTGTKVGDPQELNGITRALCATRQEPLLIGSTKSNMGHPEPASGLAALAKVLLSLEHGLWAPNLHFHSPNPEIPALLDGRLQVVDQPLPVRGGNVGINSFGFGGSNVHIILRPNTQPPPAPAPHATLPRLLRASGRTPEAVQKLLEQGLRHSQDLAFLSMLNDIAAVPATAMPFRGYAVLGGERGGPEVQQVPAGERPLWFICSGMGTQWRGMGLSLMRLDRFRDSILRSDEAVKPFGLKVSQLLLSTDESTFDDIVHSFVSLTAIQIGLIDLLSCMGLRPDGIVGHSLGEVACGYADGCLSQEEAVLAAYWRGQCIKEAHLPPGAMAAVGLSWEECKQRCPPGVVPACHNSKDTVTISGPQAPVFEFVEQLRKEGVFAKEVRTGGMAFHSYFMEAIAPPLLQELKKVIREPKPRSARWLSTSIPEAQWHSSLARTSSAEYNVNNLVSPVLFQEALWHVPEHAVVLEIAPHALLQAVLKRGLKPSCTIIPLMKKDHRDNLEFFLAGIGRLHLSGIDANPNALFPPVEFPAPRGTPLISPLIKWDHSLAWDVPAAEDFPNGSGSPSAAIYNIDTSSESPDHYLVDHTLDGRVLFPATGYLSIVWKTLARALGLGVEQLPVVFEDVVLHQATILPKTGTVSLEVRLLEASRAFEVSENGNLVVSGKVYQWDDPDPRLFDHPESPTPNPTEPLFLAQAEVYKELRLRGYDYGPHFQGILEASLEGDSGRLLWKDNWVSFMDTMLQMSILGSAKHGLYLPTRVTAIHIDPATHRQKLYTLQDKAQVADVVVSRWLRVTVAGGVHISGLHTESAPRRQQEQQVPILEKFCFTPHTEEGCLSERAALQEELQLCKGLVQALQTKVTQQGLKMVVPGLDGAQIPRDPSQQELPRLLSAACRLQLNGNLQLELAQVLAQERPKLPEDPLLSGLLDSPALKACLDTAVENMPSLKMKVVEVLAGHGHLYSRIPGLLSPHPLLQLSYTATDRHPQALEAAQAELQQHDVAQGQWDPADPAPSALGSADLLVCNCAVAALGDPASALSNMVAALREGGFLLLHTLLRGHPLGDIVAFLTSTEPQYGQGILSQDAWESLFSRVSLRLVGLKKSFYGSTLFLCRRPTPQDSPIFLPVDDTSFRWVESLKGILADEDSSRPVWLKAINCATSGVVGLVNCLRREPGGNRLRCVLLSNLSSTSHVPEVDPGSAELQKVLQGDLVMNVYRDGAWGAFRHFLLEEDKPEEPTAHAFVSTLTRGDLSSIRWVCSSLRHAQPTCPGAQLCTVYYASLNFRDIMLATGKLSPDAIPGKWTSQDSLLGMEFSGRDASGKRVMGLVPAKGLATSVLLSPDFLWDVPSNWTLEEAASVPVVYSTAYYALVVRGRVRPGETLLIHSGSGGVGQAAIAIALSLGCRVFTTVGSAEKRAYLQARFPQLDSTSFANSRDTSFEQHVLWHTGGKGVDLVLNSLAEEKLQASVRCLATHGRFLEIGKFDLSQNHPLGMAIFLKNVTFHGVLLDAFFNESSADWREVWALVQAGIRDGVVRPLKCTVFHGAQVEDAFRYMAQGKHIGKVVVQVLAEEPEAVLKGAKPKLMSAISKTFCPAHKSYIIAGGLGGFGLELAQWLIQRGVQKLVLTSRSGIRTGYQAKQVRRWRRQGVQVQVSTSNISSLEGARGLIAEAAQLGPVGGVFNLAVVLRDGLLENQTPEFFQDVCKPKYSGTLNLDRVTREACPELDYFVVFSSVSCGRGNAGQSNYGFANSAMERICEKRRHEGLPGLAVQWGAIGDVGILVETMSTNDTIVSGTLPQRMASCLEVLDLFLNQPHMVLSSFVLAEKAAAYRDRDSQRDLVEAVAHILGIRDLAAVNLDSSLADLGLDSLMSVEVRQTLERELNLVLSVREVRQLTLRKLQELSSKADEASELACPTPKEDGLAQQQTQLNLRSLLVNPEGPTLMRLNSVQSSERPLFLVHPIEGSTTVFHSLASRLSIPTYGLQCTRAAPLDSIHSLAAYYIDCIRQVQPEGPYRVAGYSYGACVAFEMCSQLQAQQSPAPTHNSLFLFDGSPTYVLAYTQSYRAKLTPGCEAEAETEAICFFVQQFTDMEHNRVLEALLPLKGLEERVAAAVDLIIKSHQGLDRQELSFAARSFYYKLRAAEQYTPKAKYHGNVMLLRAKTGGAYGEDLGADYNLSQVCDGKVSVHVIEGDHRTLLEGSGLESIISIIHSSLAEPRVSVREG
Chain of Photoreceptor-specific nuclear receptor (Q9Y5X4 whole entry, the tested form may be a part): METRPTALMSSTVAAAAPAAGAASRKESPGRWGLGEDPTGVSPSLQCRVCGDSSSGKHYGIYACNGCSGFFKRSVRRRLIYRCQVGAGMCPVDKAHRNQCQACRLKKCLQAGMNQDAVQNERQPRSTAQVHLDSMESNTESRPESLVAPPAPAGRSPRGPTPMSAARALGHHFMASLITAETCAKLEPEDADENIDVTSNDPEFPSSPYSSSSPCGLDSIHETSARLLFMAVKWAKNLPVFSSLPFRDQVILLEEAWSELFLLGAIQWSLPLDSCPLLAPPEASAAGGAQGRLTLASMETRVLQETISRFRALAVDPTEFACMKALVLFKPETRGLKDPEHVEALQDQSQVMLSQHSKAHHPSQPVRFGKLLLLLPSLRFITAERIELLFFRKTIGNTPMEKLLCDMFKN
Chain of Genome polyprotein (P29990 2492-3391 limits assumed): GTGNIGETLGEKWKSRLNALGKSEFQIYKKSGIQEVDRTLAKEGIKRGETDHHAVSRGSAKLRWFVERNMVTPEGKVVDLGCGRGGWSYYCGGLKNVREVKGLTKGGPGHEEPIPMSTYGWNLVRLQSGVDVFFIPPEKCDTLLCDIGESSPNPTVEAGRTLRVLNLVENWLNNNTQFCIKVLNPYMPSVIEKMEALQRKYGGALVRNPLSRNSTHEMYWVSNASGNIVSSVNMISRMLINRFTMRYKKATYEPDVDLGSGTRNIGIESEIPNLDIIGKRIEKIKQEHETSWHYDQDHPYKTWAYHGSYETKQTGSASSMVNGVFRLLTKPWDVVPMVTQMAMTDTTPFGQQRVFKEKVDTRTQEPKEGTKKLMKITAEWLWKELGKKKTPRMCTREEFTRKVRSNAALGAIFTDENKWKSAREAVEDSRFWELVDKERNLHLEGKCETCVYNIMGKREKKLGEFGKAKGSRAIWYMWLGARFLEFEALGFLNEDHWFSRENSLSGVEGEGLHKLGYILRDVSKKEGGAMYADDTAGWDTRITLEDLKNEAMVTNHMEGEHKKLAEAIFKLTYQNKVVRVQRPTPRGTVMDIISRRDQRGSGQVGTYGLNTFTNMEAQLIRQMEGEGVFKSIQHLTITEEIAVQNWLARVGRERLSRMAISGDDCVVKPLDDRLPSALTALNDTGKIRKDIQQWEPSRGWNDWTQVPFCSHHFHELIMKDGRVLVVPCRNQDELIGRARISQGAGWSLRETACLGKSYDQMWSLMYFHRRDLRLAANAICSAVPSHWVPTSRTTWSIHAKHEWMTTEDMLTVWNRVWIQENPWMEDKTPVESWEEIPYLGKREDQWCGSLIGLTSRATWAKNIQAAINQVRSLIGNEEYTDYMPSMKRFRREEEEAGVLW
Chain of E3 ubiquitin-protein ligase UHRF1 (Q96T88 whole entry, the tested form may be a part): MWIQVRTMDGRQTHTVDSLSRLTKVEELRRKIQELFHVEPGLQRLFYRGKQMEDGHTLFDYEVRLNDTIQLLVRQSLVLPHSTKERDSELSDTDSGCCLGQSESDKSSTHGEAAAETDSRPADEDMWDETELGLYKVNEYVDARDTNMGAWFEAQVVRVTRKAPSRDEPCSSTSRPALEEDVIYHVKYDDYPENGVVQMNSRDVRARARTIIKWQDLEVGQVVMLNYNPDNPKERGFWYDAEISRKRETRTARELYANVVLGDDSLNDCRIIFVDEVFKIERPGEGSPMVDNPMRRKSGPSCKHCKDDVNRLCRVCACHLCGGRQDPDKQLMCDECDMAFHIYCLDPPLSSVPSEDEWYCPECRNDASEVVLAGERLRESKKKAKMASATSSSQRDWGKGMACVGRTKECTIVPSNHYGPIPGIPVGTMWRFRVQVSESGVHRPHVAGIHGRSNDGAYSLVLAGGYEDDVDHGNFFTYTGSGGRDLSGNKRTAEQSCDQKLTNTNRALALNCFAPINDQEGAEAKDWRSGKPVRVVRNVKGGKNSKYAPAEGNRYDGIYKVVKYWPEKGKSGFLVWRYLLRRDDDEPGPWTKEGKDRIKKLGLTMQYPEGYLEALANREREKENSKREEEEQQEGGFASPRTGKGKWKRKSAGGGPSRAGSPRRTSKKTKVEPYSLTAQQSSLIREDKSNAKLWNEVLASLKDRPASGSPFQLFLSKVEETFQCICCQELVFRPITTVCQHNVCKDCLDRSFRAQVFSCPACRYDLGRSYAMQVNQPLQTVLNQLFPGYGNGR

**Q.** Which results are given for `Cc1ccc(S(=O)(=O)ON2C(=O)c3ccccc3C2=O)c(C)c1`?
**A.** IC50 (Genome polyprotein): 96.3 µM (active); IC50 (Fatty acid synthase [1]): 1.39 µM (active); IC50 (Prothrombin): 0.856 µM (active); IC50 (Coagulation factor XII): 8.48 µM (active); IC50 (Fatty acid synthase [2]): 1.35 µM (active)

**Q.** Which CC50 [3] does the source give for `CC(=O)Nc1ccc(S(=O)(=O)N2CCN(CCCOc3ccccc3Cl)CC2)cc1` here?
**A.** > 40 µM (active)

**Q.** What does the source list for `Cc1cc(C)c(S(=O)(=O)NCCn2c(C)cc3ccccc32)c(C)c1`?
**A.** IC50 (Fibrinogen beta chain [4]): > 83.3 µM (inactive); IC50 (Fibrinogen beta chain [5]): 15.1 µM (inactive)

**Q.** Which results are given for `COc1cccc2cc(-c3nc4ccccc4o3)c(=O)oc12`?
**A.** EC50 [6]: > 120 µM (not active); IC50 (cells [7]): 14.9 µM (active)

**Q.** What does the source list for `CC(C)N1CCc2c(sc(NC(=O)c3ccc([N+](=O)[O-])o3)c2C(N)=O)C1`?
**A.** EC50 [8]: 3.19 µM (active); EC50 [9]: 4.38 µM (active); IC50 [10]: 4.58 µM (active); EC50 [11]: 0.953 µM (active); IC50 [12]: 1.32 µM (active); EC50 [13]: < 0.1 µM (active); EC50 [14]: 0.145 µM (active); IC50 (Fatty acid synthase [1]): 5.65 µM (active); EC50 (Streptokinase A): > 150 µM (not active); EC50 (cells [15]): 0.496 µM (active); EC50 (Streptococcus): 8.99 µM (active); EC50 [16]: 0.3 µM (active); IC50 (Fatty acid synthase [2]): 6.27 µM (active); AC50 (Paired box protein Pax-8): 1.16 µM (active)

**Q.** With `NC(=O)c1ccc(N/C=C2/C(=O)NC(=O)N(Cc3ccco3)C2=O)cc1` as the compound, how does the IC50 [17] read?
**A.** 3.45 µM (active)

**Q.** What about the IC50 [18] of the same compound?
**A.** 31.3 µM (inactive)

**Q.** For `O=C(CCBr)N1CCN(C(=O)CCBr)CC1` [PIPOBROMAN], which GI50 (P388) is on record?
**A.** 14.1 µM (inactive)

**Q.** And the IC50 [19]?
**A.** > 10 µM (inactive)

**Q.** What about the GI50 (SN12K1) of the same compound?
**A.** 65.3 µM (inactive)

**Q.** What about the IC50 [20] of the same compound?
**A.** > 10 µM (inactive)

**Q.** What about the GI50 (P388/ADR) of the same compound?
**A.** 13.2 µM (inactive)

**Q.** Which IC50 (Protein Tat) does the source give for `O=C1NC(=S)N/C1=C/c1ccc(-c2c(Br)cc([N+](=O)[O-])cc2Br)o1` here?
**A.** > 100 µM (active)

**Q.** And the CC50 [3]?
**A.** > 40 µM (active)

**Q.** And the EC50 [21]?
**A.** 40.5 µM (active)

**Q.** And the EC50 [22]?
**A.** 35.2 µM (active)

**Q.** What about the IC50 [23] of the same compound?
**A.** 2.48 µM (active)
